Laboratory results as given in ChEMBL document CHEMBL2406940, “Reactive oxygen species production by quercetin causes the death of Leishmania amazonensis intracellular amastigotes” (J Nat Prod, 2013).
Activity calls are given as the source filed them. The calls are words filed in the database; no cut-off is given here.

Legend:
[1] = test system: Leishmania amazonensis; experiment: Antileishmanial activity against Leishmania amazonensis after 72 hrs; format: functional, organism-based
[2] = test system: Peritoneal macrophage cell; experiment: Induction of intracellular […] production in Swiss mouse peritoneal macrophages up to 12 uM after 72 hrs by spectrofluorometric analysis; format: functional, cell-based
[3] = test system: Peritoneal macrophage cell; experiment: Induction of intracellular […] production in promastigotes of Leishmania amazonensis MHOM/BR/75/LTB0016 infected Swiss mouse peritoneal macrophages at 12 uM after 72 hrs by spectrofluorometric analysis relative to control; format: functional
[4] = test system: Peritoneal macrophage cell; experiment: Induction of intracellular […] production in promastigotes of Leishmania amazonensis MHOM/BR/75/LTB0016 infected Swiss mouse peritoneal macrophages after 72 hrs by spectrofluorometric analysis; format: functional, cell-based
[5] = Cytotoxicity against Swiss mouse peritoneal macrophages after 72 hrs by AlamarBlue assay; format: cell-based; details: Peritoneal macrophage cell
[6] = Selectivity index, ratio of IC50 for Swiss mouse peritoneal macrophages to IC50 for promastigotes of Leishmania amazonensis MHOM/BR/75/LTB0016
[7] = test system: Leishmania amazonensis; experiment: Antileishmanial activity against promastigotes of Leishmania amazonensis MHOM/BR/75/LTB0016 infected in Swiss mouse peritoneal macrophages assessed as parasite growth inhibition at 12 uM after 72 hrs; format: functional; details: MHOM/BR/75/LTB0016, 72 h, read-out: GI
[8] = test system: Leishmania amazonensis; experiment: Antileishmanial activity against promastigotes of Leishmania amazonensis MHOM/BR/75/LTB0016 infected in Swiss mouse peritoneal macrophages assessed as reduction of infection index after 72 hrs; format: functional, organism-based

SMILES	IC50 [1] [µM]	Activity [2]	fold change (FC) [3]	Activity [4]	IC50 [5] [µM]	Ratio IC50 [6]	inhibition of growth at 12 µM [7] [%]	inhibition [8]	IC50 ([8]; MHOM/BR/75/LTB0016, 72 h) [µM]
CCCCCCCCCCCCCCCCOP(=O)([O-])OCC[N+](C)(C)C [MILTEFOSINE]	3.2								
O=c1c(O)c(-c2ccc(O)c(O)c2)oc2cc(O)cc(O)c12 [QUERCETIN]		inactive	1.5	Dose-dependent effect	80.2	16.8	74.8	Dose-dependent effect	3.4
